Test results as given in US7579439B2, “Modulation of IL-2- and IL-15-mediated T cell responses” (Beth Israel Deaconess Medical Center, Inc., priority 2000, dated 2009).

Columns and labels:
[1] = test system: IL-2Rγ+ BAF-BO3 cell transfectants that express the IL-2Rβ subunit; assay: BAF-BO3 cell proliferation assay (IL-2Rβ transfectants); format: cell-based
Protocol: (§1) In the next series of experiments, the FLAG-HMK-IL-15 fusion protein was tested to determine whether it could function as a biologically active growth factor.

[2] = test system: IL-15 binding sites on PHA-activated human PBMCs; assay: Cytofluorometric analysis of binding to PBMCs (anti-FLAG biotinylated Ab, streptavidin-RED670); conditions: flow cytometry
Protocol: The FLAG-HMK-IL-15 fusion protein, biotinylated anti-FLAG antibody, and streptavidin-RED670 were employed to detect expression of IL-15 binding sites on human PBMCs by cytofluorometric analysis. The PBMCs tested were either freshly isolated or PHA-activated. These cells were washed and incubated with either medium alone or FLAG-HMK-IL-15 followed by anti-FLAG biotinylated Ab and streptavidin-RED670. The stained cells were analyzed by flow cytometry. […] Both activated CD4^+ and CD8^+ cells express IL-15α chains. Activation induced IL-15Rα chains were also detected on CD14^+ (monocyte/macrophage) cells and CD16^+ (natural killer) cells.
PHA-activated PBMCs were washed and incubated with medium alone, or with the FLAG-HMK-IL-15 double mutant. The cells were then incubated with an anti-FLAG biotinylated antibody and stained with streptavidin conjugated to RED670. The stained cells were analyzed by flow cytometry.

human IL-15Rα subunit = target: T1, human IL-15Rα subunit (Homo sapiens, UniProt Q13261); assay: Cross-linking of [32P]-FLAG-HMK-IL-15 to PHA-activated PBMCs (DSS, SDS-PAGE autoradiography); format: binding; conditions: cross-linked with DSS; band lost with molar excess of hIL-15
T1 construct: endogenous in cells
T1 sequence (Q13261 31-267): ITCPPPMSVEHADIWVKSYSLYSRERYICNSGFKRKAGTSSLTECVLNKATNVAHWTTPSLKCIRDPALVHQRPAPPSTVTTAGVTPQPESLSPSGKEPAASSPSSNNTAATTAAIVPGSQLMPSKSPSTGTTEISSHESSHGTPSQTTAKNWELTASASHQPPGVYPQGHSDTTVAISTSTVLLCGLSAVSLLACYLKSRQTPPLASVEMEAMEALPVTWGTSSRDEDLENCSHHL
Protocol: The purified FLAG-HMK-IL-15 fusion protein was tested to determine whether it interacts with cell surface IL-15 receptors. As described above, [^32P]-FLAG-HMK-IL-15 was added to cultures of PBMCs that were activated by a mitogen, PHA. In order to permanently bind interactive proteins to one another, the chemical cross-linker disuccinimidyl suberate (DSS) was added. The cells were washed, lysed, centrifuged, and detergent-soluble proteins were separated by SDS-PAGE. […] The identity of this band as the IL-15Rα subunit was confirmed by cross-linking experiments conducted in the presence of a molar excess of hIL-15.

[3] = test system: PHA-activated human PBMCs; assay: [3H]-TdR incorporation assay, PHA-activated PBMCs; format: cell-based
Protocol: as §1

[4] = test system: parental BAF-BO3 cells transfected with a vector lacking IL-2Rβ chain sequences; assay: BAF-BO3 cell proliferation assay (parental cells, vector lacking IL-2Rβ); format: cell-based; conditions: parental BAF-BO3 cells lacking IL-2Rβ
Protocol: In the next series of experiments, the FLAG-HMK-IL-15 fusion protein was tested to determine whether it could function as a biologically active growth factor. […] Thus, FLAG-HMK-IL-15 is a biologically active growth factor that requires expression of IL-2Rβ chains upon target cells in order to stimulate cellular proliferation.

[5] = test system: leukemic cell lines MOLT-14, YT, HuT-102, 2A and 2B; assay: FACS analysis of leukemic cell lines stained with FLAG-HMK-IL-15; format: binding; conditions: flow cytometry
Protocol: The cells treated were obtained from the leukemic cell lines MOLT-14, YT, HuT-102, and from cell lines currently being established at Beth Israel Hospital (Boston, Mass.), and named 2A and 2B. The cultured cells were washed and incubated with either medium alone or with medium containing the FLAG-HMK-IL-15 wild-type polypeptide. The cells were then incubated with the biotinylated anti-FLAG antibody and stained with RED670-conjugated streptavidin. The stained cells were analyzed by flow cytometry.

[6] = test system: T cells at the second cell division in vivo; assay: In vitro proliferation of sorted in vivo dividing T cells (3H-TdR uptake); format: cell-based, mice; conditions: IL-2 in doses as high as; IL-15 5 ng/ml; 48 hours
Protocol: CFSE-labeled lymphocytes were stimulated in vivo for three days and cell division was analyzed by examining the CFSE profile. T cells in the second cell division were sorted and cells (1×10^4) were cultured in vitro with IL-2 or IL-15 for two days. Cellular proliferation was determined by ^3H-TdR uptake. The results are presented as the mean CPM±SD of triplicate assays.
Cell sorting and in vitro proliferation assays were carried out as follows. CFSE-labeled cells were prepared from irradiated allogeneic hosts three days after intravenous injection of labeled cells, and cell proliferation in vivo was identified by analysis of the cells' CFSE profile. The second cell division was selected, gated, and sorted with FACS Vantage™. Cells (1×10^4/ml) were resuspended in RPMI 1640 medium with 10% FCS and 1% penicillin and streptomycin, and stimulated with IL-2 (40 μ/ml to 500 μ/ml) or IL-15 (5 ng/ml) for 48 hours. Cells were pulsed with 1 mCi 3H-TdR (Amersham, Boston, Mass.) for 16 hours and ^3H-TdR uptake was determined by scintillation counting (Beckman Instrument, Columbia, Md.).

Substance	inhibition of BAF-BO3 proliferation ([1]; 30 μl versus 20 μL of approximately 50 μg/ml)	binding to PHA activated PBMCs [2]	binding to the IL-15Rα subunit on the surface of mitogen-activated PBMCs (human IL-15Rα subunit)	stimulation of cell proliferation [3]	stimulation of proliferation ([1]; BAF-BO3 transfectants expressing IL-2Rβ)	stimulation of proliferation [4]	binding to leukemia cells [5]	T cell proliferation by 3H-TdR uptake [6]
FLAG-HMK-IL-15 double mutant: human IL-15 protein bearing a double mutation (Q149D; Q156D), FLAG-HMK tagged	inhibit BAF-BO3 proliferation in a dose-dependent manner	bind PHA activated human PBMCs was demonstrated						
FLAG-HMK-IL-15: IL-15 polypeptide having an N-terminus covalently bound to the 18 amino acid FLAG-HMK-sequence		blocked by a molar excess of rIL-15	site specific binding	proliferate in response to	stimulates proliferation	does not, however, stimulate the proliferation	bind leukemia cells was shown	
IL-15: recombinant human IL-15								stimulated vigorous cell proliferation
